Reference: patent US20130237556A1, “BERBERINE ALKALOID AS A MEDICAMENT FOR PREVENTION AND TREATMENT OF NEURAL DISEASE” (HONG KONG BAPTIST UNIVERSITY, priority 2012, published 2013)
Entries after “also recorded” stand apart in the source; their conditions may differ.

Tests used:
N2a-SwedAPP cells [1] = assay: MTT toxicity assay; assay type: cell-based, mouse; details: up to 25 μM BBR, 24 h
Experimental: N2a-SweAPP cells are mouse neuroblastoma N2a cells stably transfected with human Swedish mutant APP695, and were gifts from Dr. Gopal Thinakaran (University of Chicago, Chicago Ill.). Cells were maintained in Dulbecco's modified Eagle's medium (DMEM) (Invitrogen, Carlsbad, Calif.) supplemented with 10% fetal bovine serum, penicillin and streptomycin and 200 μg/mL G418 (Invitrogen). Cells were cultured either in multiwell dishes or on 60 mm tissue culture plates in DMEM 10% with FBS Cell cultures were incubated at 37° C. in a humid 5% CO2/ 95% air environment. After cells were grown close to confluence, they were treated with/without different concentrations of BBR in DMEM (1% FBS) for 24 h. […] For the concentration-dependent treatment, cells were treated with serial dilutions of BBR ranging from 0-20 μM for 2 or 12 h prior to lysis with ice-cold RIPA buffer (20 mM Tris, pH 7.4, 150 mM NaCl, 1% triton-X, 0.5% sodium deoxycholate, EDTA) containing protease inhibitor cocktails (EMD chemicals, Philadelphia, Pa.) to find the optimal range of BBR. For the time-dependent application, cells were treated with a 20 μM concentration of BBR and incubated at time points ranging from 0-180 min prior to lysis. For immunofluorescent staining, N2a-SwedAPP cells were seeded on glass cover slips at a density of 0.5×10^5 viable cells per well in a 24-well plate. […]

TgCRND8 mice [2] = assay: Microgliosis (Iba-1 burden) and astrocytosis (GFAP burden) immunohistochemistry; assay type: in vivo, mouse
TgCRND8 mice [3] = assay: Aβ1-40 and Aβ1-42 sandwich ELISA in SDS and formic acid brain extracts; assay type: in vivo, mouse
TgCRND8 mice [4] = assay: Western blot of brain homogenates (APP processing, tau phosphorylation, Akt/GSK3); assay type: in vivo, mouse
N2a-SwedAPP cells [5] = assay: Western blot of N2a-SwedAPP cell lysates (p-Akt, pGSK3, CTFs, p-APP, PHF-1); assay type: cell-based, mouse
Experimental: N2a-SweAPP cells are mouse neuroblastoma N2a cells stably transfected with human Swedish mutant APP695, and were gifts from Dr. Gopal Thinakaran (University of Chicago, Chicago Ill.). Cells were maintained in Dulbecco's modified Eagle's medium (DMEM) (Invitrogen, Carlsbad, Calif.) supplemented with 10% fetal bovine serum, penicillin and streptomycin and 200 μg/mL G418 (Invitrogen). Cells were cultured either in multiwell dishes or on 60 mm tissue culture plates in DMEM 10% with FBS Cell cultures were incubated at 37° C. in a humid 5% CO2/ 95% air environment. After cells were grown close to confluence, they were treated with/without different concentrations of BBR in DMEM (1% FBS) for 24 h. […] For the concentration-dependent treatment, cells were treated with serial dilutions of BBR ranging from 0-20 μM for 2 or 12 h prior to lysis with ice-cold RIPA buffer (20 mM Tris, pH 7.4, 150 mM NaCl, 1% triton-X, 0.5% sodium deoxycholate, EDTA) containing protease inhibitor cocktails (EMD chemicals, Philadelphia, Pa.) to find the optimal range of BBR. For the time-dependent application, cells were treated with a 20 μM concentration of BBR and incubated at time points ranging from 0-180 min prior to lysis. For immunofluorescent staining, N2a-SwedAPP cells were seeded on glass cover slips at a density of 0.5×10^5 viable cells per well in a 24-well plate. Cells on cover slips were treated with BBR (20 μM) for 3 h with or without pretreatment of LY294002 (Cell signaling Technology, Danvers, Mass.), a specific inhibitor of Akt upstream kinase phosphatidylinositol 3-kinase (PI3K) (Vlahos et al., 1994) in serum-free DMEM for 1 h, whereas control cells were incubated with vehicle (DMSO) alone in DMEM.
The brain SDS fraction as described above was used to detect the full-length APP (Fl-APP), APP C-terminal fragments (CTFs: CTF-β and CTF-α), p-APP, p-CTFs, BACE-1, ADAM-10, neprilysin, insulin-degrading enzyme (IDE), GSK3α/β, p-cyclin-dependent kinase 5 (p-CDKS), p-stress-activated protein kinase/Jun-amino-terminal kinase (p-JNK), phospho-tau epitopes and β-actin in Western blot analysis. For cell homogenates preparation, cells were washed with phosphate-buffered saline (PBS) and solubilized in ice-cold RIPA buffer. Equal amounts of protein (30 μg) were subjected to 10 and 15% SDS polyacrylamide gels, transferred onto PVDF membranes (GE Healthcare, Piscataway, N.J.) at 300 mA for 2 h, and then blocked with 5% fat-free milk in Tris-buffered saline and 0.1% Tween-20 for 2 h at room temperature. The membrane was then incubated with primary antibodies overnight at 4C. The antibodies used in Western blots were β-actin (mouse, 1:5000; Santa Cruz, Calif.), p-APP (rabbit, 1:1000; Cell signaling Technology), BACE-1 (rabbit, 1:1000; Abcam, Cambridge, Mass.), ADAM-10 (rabbit, 1:2000; EMD chemicals), insulin-degrading enzyme (IDE) (rabbit, 1:1000, Abcam), neprilysin (rabbit, 1:1000 Millipore, Temecula, Calif.), Akt (rabbit, 1:1000; Cell Signaling Technology), p-Akt (rabbit, 1:1000; Cell signaling), glycogen synthase kinase 3α/β(GSK-3α/β)[Ser21/9] (rabbit, 1:1000; Cell signaling Technology), pGSK-3α/βSer21/9] (rabbit, 1:1000; Cell signaling Technology), Cdk5[Y15] (rabbit, 1:1000; Abcam), JNK (Thr183/Tyr185) (rabbit, 1:1000, Cell signaling Technology), the C-terminal anti-APP antibody CT15 for full-length APP and CTFβ and CTFα (rabbit, 1:2000, and three mouse monoclonal antibodies against phosphorylated tau: AT8 (recognizes phosphorylated tau at Ser-202 and Thr-205, 1:1000, Pierce, Rockford, Ill.), AT180 (recognizes phosphorylated tau at Thr-231 and Ser-235, 1:1000, Pierce) and PHF-1 (recognizes -phosphorylated tau at […] and Ser 404, 1:2000, and one mouse monoclonal against dephosphorylaed tau: Tau-1 (recognizes the tau when serines 195, 198, 199, and 202 are dephosphorylated, 1:2000,). Mouse monoclonal Tau-5 used to recognize total tau (mouse 1:2000). Blots were washed in and incubated with corresponding horseradish peroxidase-conjugated secondary antibody. […]

Aβ1-42 fibril formation = Aβ1-42 fibril formation (Homo sapiens, UniProt P05067); assay: Inhibition of Aβ1-42 fibril formation in vitro; assay type: biochemical
Chain of Aβ1-42 fibril formation (P05067 672-713 limits assumed): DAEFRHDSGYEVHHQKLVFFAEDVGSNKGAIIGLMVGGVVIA

[6] = BBR-treated TgCRND8, dose not stated (discussion)
[7] = low dose BBR, SDS and FA fractions
[8] = BBR 25 and 100 mg/Kg/d vs vehicle
[9] = BBR- vs vehicle-treated TgCRND8
[10] = BBR-treated vs vehicle-treated TgCRND8, dose not stated

## COc1ccc2cc3[n+](cc2c1OC)CCc1cc2c(cc1-3)OCO2 [BBR, 5,6-dihydro-9,10-dimethoxybenzo[g]-1,3-benzodioxolo[5,6-a]quinolizinium]
N2a-SwedAPP cells [1]
  cell viability (MTT): did not affect cell viability
TgCRND8 mice [2]; 25 mg/Kg
  GFAP burden (astrocytosis) reduced to % relative to vehicle-treated: 54%
TgCRND8 mice [2]; 25 mg/Kg/d
  Iba-1 burden (microgliosis) reduced to % relative to vehicle-treated: 45%
TgCRND8 mice [2]; 100 mg/Kg
  GFAP burden (astrocytosis) reduced to % relative to vehicle-treated: 28%
TgCRND8 mice [2]; 100 mg/Kg/d
  Iba-1 burden (microgliosis) reduced to % relative to vehicle-treated: 27%
TgCRND8 mice [2]; [6]
  decrease in astrocytosis: 54%
  reduction in microgliosis: 45%
TgCRND8 mice [3]; 25 mg/Kg/d
  diminution of Aβ1-40, SDS-soluble fraction: 44%
  reduction of Aβ1-40, formic acid extractable fraction: 49%
  reduction of Aβ1-42, formic acid extractable fraction: 44%
TgCRND8 mice [3]; 100 mg/Kg/d
  diminution of Aβ1-40, SDS-soluble fraction: 32%
  reduction of Aβ1-40, formic acid extractable fraction: 54%
  reduction of Aβ1-42, formic acid extractable fraction: 39%
TgCRND8 mice [3]; BBR treatments (25 and 100 mg/Kg/d)
  Aβ1-42, SDS-soluble fraction: slight reduction
TgCRND8 mice [3]; [7]
  reduction of total extracted Aβ40: 44-49%
  reduction of total extracted Aβ42: 22-43%
TgCRND8 mice [4]; 25 mg/Kg/day
  CTF-α and β levels in brain homogenates: significantly reduces
TgCRND8 mice [4]; [8]
  ADAM-10 level in brain homogenates: no significant difference; also recorded: no effect
  BACE-1 level in brain homogenates: no effect; also recorded: no significant difference
  full length APP level in brain homogenates: no effect; also recorded: no significant difference
TgCRND8 mice [4]; BBR treatment
  total GSK3α/β and total Akt: unaltered
TgCRND8 mice [4]; BBR vs vehicle
  IDE level in brain homogenates: no significant difference; also recorded: does not affect
  neprilysin level in brain homogenates: no significant difference; also recorded: does not affect
TgCRND8 mice [4]; [9]
  p-Cdk5 (Y15) level: no significant differences
  p-JNK (Thr183/Tyr185) level: no significant differences
  phosphorylated Akt (p-Akt) level normalized to total Akt: significantly high
TgCRND8 mice [4]; BBR-treated TgCRND8
  tau-1 immunoreactivity (dephosphorylated tau): significant increase
TgCRND8 mice [4]; BBR-treated vs vehicle-treated TgCRND8
  enhancement in phosphorylated GSK3α and β at Ser 21 and 9: 50%
TgCRND8 mice [4]; [10]
  decrease of phosphorylated tau at AT8 phosphoepitope: 30%
  decrease of phosphorylated tau at AT180 phosphoepitope: 42%
  decrease of phosphorylated tau at PHF-1 phosphoepitope: 26%
TgCRND8 mice [4]; between the groups
  total tau levels: No significant difference
TgCRND8 mice [4]; high dose group vs vehicle
  decrease in the p-APP and p-CTFs: 27-28%
TgCRND8 mice [4]; low dose group vs vehicle
  decrease in the p-APP and p-CTFs: 46-50%
N2a-SwedAPP cells [5]; 5 μM BBR, 12 hours
  reduction in the level of CTFs: 24%
N2a-SwedAPP cells [5]; 10 μM BBR, 12 hours
  decrease of p-APP (Thr668) level: 50%
  level of tau bound to PHF-1 decreased to % compared to control: 30%
N2a-SwedAPP cells [5]; 20 μM BBR, 0-180 min, remains higher than control beyond 3 h
  amount of phosphorylated GSK3, time course: increases during the first 30 min
N2a-SwedAPP cells [5]; 20 μM BBR, 12 hours
  decrease of p-APP (Thr668) level: 75%
  level of tau bound to PHF-1 decreased to % compared to control: 50%
  reduction of CTFs level (of basal level), maximal: 55%
N2a-SwedAPP cells [5]; BBR 10 and 20 μM, 3 hours
  phosphorylation of Akt at Ser 473 and GSK3 at Ser 21 and Ser9, concentration-dependent: significant increases
N2a-SwedAPP cells [5]; BBR treatment
  cellular total Akt and GSK3β levels: does not significantly affect
Aβ1-42 fibril formation; in vitro
  IC50: 23.5 µM
Aβ1-42 fibril formation; printed as 'times less than those found in the brain'
  effective in vitro concentration (approximately 20 μM) relative to brain levels: 23 times
